Experiment [1] addresses T1, human STING (HAQ) (Homo sapiens (Human), UniProt Q86WV6, G230A/H232R/R293Q). Put plainly: Differential scanning fluorimetry (DSF), huSTING (HAQ). The format is binding. Conditions: compound 100 μM, 2 μM protein, Tm with ligand minus Tm of protein alone (1% DMSO). How it is done: (§1) Data were analyzed using “Meltdown analysis” protocol described by Rosa (2015).
Experiment [2] concerns the target T2, human STING (WT) (Homo sapiens (Human), UniProt Q86WV6, H232R). Put plainly: Differential scanning fluorimetry (DSF), huSTING (WT). The format is binding. The following applies: compound 100 μM, 2 μM protein, Tm with ligand minus Tm of protein alone (1% DMSO). The protocol:
as §1

The target of experiment [3] is human HAQ isoform of STING (Homo sapiens (Human), UniProt Q86WV6, G230A/H232R/R293Q/R71H). Kind of experiment: THP-1 STING Lucia ISG reporter cell line assay. The format is cell-based. The following applies: 24 h incubation, luminescence, normalized to ML RR-S2 CDA 40 μM; read-out: EC50 THP-I STING Lucia ISG cells. The protocol:
(§2) THP-1 STING Lucia ISG cells (InvivoGen #thpl-isg) were cultured in RPMI-1640 containing 2 mM L-glutamine, 25 mM HEPES, 100 μg/mL Normocin (InvivoGen) and 10% heat-inactivated FBS. Cells were seeded at a density of 7×10^5 cells/mL, maintained at 37° C./5% CO2, and passaged every 3-4 days. Selection pressure was maintained by the addition of 100 μg/mL Zeocin every second passage.
(§3) Assay conditions: cells were harvested and resuspended at a concentration of 5×10^5 cells/mL in fresh growth media. Of this cell preparation 20 μL per well was dispensed into 384 well cell culture plates (Greiner, #781098X) and incubated at 37° C./5% CO2 for 2 hours.
(§4) Concentration Response Curves (commonly 11 doses) were prepared by 2.5 fold serial dilution starting from 10 mM compound stock solution in DMSO. Compound dilutions were transferred into the cell culture plates using a pintool (0.1 μL transfer), control wells were matched for DMSO. Positive control wells received ML RR-S2 CDA (Med Chem Express HY12885B) in 5 μL of media to a final concentration of 40 μM. All other wells received additional 5 μL of media only to equalize volume. The plates were incubated for 24 h at 37° C./5% CO2.
(§5) For the detection step, QUANTI-Luc (InvivoGen #rep-qlc1) was prepared according to manufacturer's instruction and 10 μL were added per well to the culture plates. Plates were shaken for ten seconds on an orbital shaker and left in the dark at room temperature for two minutes, before luminescence was read on a Perkin Elmer Envision plate reader.
(§6) Data analysis: Luminescence raw data was normalized % activity relative to the signal of the positive control wells and negative control wells which were not treated with compound. The following formula was used to calculate normalized % activity from raw signals: % activity=(sample−negative)/(positive−negative)
(§7) The THP-1 STING Lucia ISG cell EC50 provides an assessment of activity at the human HAQ isoform of STING. For assessing compound activity against the WT human STING isoform, an equivalent method was conducted where the cells used were THP-1-Dual KI-hSTING-R232 (InvivoGen #thpd-r232).

For the next experiment, the target named is WT human STING isoform (Homo sapiens (Human), UniProt Q86WV6, H232R). Kind of experiment: THP-1-Dual KI-hSTING-R232 reporter cell line assay. The format is cell-based. Conditions: 24 h incubation, luminescence, normalized to ML RR-S2 CDA 40 μM; read-out: EC50 THP-1 Dual KI-hSTING-R232 cells. How it is done:
as §2, §3, §4, §5, §6, §7

The target in experiment [4] is T2, human STING (WT). Put plainly: Surface Plasmon Resonance (SPR), STING (WT). The following applies: read-out: SPR (WT) KD; biotinylated STING on streptavidin chip, 8° C.
For experiment [5], the target named is T1, human STING (HAQ). Kind of experiment: Surface Plasmon Resonance (SPR), STING (HAQ). Conditions: read-out: SPR (HAQ) KD; biotinylated STING on streptavidin chip, 8° C.

T1 sequence (Q86WV6 149-345 G230A/H232R/R293Q): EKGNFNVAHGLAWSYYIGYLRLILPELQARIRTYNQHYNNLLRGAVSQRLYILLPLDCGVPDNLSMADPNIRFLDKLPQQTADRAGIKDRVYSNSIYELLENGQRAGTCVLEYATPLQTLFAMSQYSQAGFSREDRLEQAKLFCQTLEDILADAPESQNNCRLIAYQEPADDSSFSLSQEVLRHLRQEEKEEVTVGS
Chain of WT human STING isoform (Q86WV6 whole entry H232R, canonical isoform): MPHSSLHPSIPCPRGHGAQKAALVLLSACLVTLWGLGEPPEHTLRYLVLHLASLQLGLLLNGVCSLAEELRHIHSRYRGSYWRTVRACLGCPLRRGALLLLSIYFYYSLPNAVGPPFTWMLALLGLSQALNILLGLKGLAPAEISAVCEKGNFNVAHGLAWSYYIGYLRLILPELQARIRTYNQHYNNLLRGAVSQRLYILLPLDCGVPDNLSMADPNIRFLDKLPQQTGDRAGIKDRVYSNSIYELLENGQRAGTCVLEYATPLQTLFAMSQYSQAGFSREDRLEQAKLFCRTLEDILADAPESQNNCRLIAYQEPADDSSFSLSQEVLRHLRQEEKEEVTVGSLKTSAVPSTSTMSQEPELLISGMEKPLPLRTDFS
T2 sequence (Q86WV6 149-345 H232R): as the sequence (Q86WV6 149-345 G230A/H232R/R293Q) above, with A82G, Q145R counted along it
Chain of human HAQ isoform of STING (Q86WV6 whole entry R71H/G230A/H232R/R293Q, canonical isoform): as the sequence (Q86WV6 whole entry H232R, canonical isoform) above, with R71H, G230A, R293Q counted along it

The term EC50 denotes the concentration that produces a half-maximal response. Usually Kd stands for the concentration at which binding is half-saturated. As to `NC(=O)c1ccc2c(c1)nc(-c1c(C(=O)O)sc3cccc(Cl)c13)n2CCn1c(-c2c(C(=O)O)sc3cccc(Cl)c23)nc2cc(C(N)=O)ccc21` (single isomer, unassigned) [Example 1.1, 3,3′-(Ethane-1,2-diylbis(5-carbamoyl-1H-benzo[d]imidazole-1,2-diyl))bis(4-chlorobenzo[b]thiophene-2-carboxylic acid)], the “DSF huSTING (HAQ) ΔTm” value on human STING (HAQ) [1] is 31.8 °C. At human STING (WT) [2], the “DSF huSTING (WT) ΔTm” value was determined as 19.9 °C. Also, the EC50 in experiment [3] amounted to 681 nM; on WT human STING isoform it was 271 nM. For the same compound, the results for the equilibrium dissociation constant (Kd) at human STING (WT) [4] and at human STING (HAQ) [5] were 119 nM and 1.7 nM, respectively.

The term ΔTm denotes the change in melting temperature against a reference sample. Consider `NC(=O)c1ccc2c(c1)nc(-c1c(C(=O)O)sc3c(F)ccc(Cl)c13)n2CCn1c(-c2c(C(=O)O)sc3c(F)ccc(Cl)c23)nc2cc(C(N)=O)ccc21` (single isomer, unassigned) [Example 2.1, 3,3′-(Ethane-1,2-diylbis(5-carbamoyl-1H-benzo[d]imidazole-1,2-diyl))bis(4-chloro-7-fluorobenzo[b]thiophene-2-carboxylic acid)], for which, on human STING (HAQ) [1], the ΔTm at 100 µM worked out at 32 °C. For the same compound, the “DSF huSTING (WT) ΔTm” value at human STING (WT) [2] worked out at 21 °C. In addition, the results for the EC50 (in experiment [3]; at WT human STING isoform) were 1830 nM and 518 nM, respectively. The figures for the Kd on human STING (WT) [4] and at human STING (HAQ) [5] were 31 nM and 7.4 nM, respectively.

For the compound `NC(=O)c1ccc2c(c1)nc(-c1c(C(=O)O)sc3c(F)ccc(Cl)c13)n2CCn1c(-c2c(C(=O)O)sc3c(F)ccc(Cl)c23)nc2cc(C(N)=O)ccc21` (single isomer, unassigned) [Example 2.2, 3,3′-(Ethane-1,2-diylbis(5-carbamoyl-1H-benzo[d]imidazole-1,2-diyl))bis(4-chloro-7-fluorobenzo[b]thiophene-2-carboxylic acid)], the “DSF huSTING (HAQ) ΔTm” value on human STING (HAQ) [1] worked out at 22.2 °C. Moreover, the “DSF huSTING (WT) ΔTm” value at human STING (WT) [2] stood at 8.85 °C. Further, the concentration giving a half-maximal response (EC50) amounted to 8320 nM in experiment [3] and 4300 nM at WT human STING isoform. Moreover, the dissociation constant (Kd) on human STING (HAQ) [5] is 124 nM.

Consider `NC(=O)c1ccc2c(c1)nc(-c1c(C(=O)O)sc3cccc(Cl)c13)n2CCCn1c(-c2c(C(=O)O)sc3cccc(Cl)c23)nc2cc(C(N)=O)ccc21` (single isomer, unassigned) [Example 4.1, 3,3′-(Propane-1,3-diylbis(5-carbamoyl-1H-benzo[d]imidazole-1,2-diyl))bis(4-chlorobenzo[b]thiophene-2-carboxylic acid)], for which the “DSF huSTING (HAQ) ΔTm” value at human STING (HAQ) [1] came to 2.85 °C. Further, the “DSF huSTING (WT) ΔTm” value on human STING (WT) [2] was −0.82 °C. The EC50 (in experiment [3]; at WT human STING isoform) was > 40000 nM in each case. In addition, the Kd came out at 500000 nM at human STING (WT) [4] and 35100 nM on human STING (HAQ) [5].

Turning to `COc1cccc2sc(C(=O)O)c(-c3nc4cc(C(N)=O)ccc4n3CCn3c(-c4c(C(=O)O)sc5cccc(OC)c45)nc4cc(C(N)=O)ccc43)c12` (single isomer, unassigned) [Example 5.1, 3,3′-(Ethane-1,2-diylbis(5-carbamoyl-1H-benzo[d]imidazole-1,2-diyl))bis(4-methoxybenzo[b]thiophene-2-carboxylic acid)], on human STING (HAQ) [1], the “DSF huSTING (HAQ) ΔTm” value came out at 23.59 °C. In addition, the “DSF huSTING (WT) ΔTm” value on human STING (WT) [2] is 6.4 °C. In addition, the 50% effective concentration (EC50) in experiment [3] is > 40000 nM; on WT human STING isoform it was 13600 nM. Moreover, the dissociation constant (Kd) came to 692 nM at human STING (WT) [4] and 20.9 nM on human STING (HAQ) [5].

For `COc1cccc2sc(C(=O)O)c(-c3nc4cc(C(N)=O)ccc4n3CCn3c(-c4c(C(=O)O)sc5cccc(OC)c45)nc4cc(C(N)=O)ccc43)c12` (single isomer, unassigned) [Example 5.2, 3,3′-(Ethane-1,2-diylbis(5-carbamoyl-1H-benzo[d]imidazole-1,2-diyl))bis(4-methoxybenzo[b]thiophene-2-carboxylic acid)], the ΔTm at 100 µM at human STING (HAQ) [1] is 30.9 °C. Moreover, at human STING (WT) [2], the “DSF huSTING (WT) ΔTm” value was 19.17 °C. For the same compound, the EC50 in experiment [3] worked out at 1660 nM; on WT human STING isoform it was 489 nM. Further, the dissociation constant Kd at human STING (WT) [4] turned out to be 122 nM; at human STING (HAQ) [5] it was 1.4 nM.

`NC(=O)c1ccc2c(c1)nc(-c1c(C(=O)O)sc3cccc(Br)c13)n2CCn1c(-c2c(C(=O)O)sc3cccc(Br)c23)nc2cc(C(N)=O)ccc21` (single isomer, unassigned) [Example 11.2, 3,3′-(Ethane-1,2-diylbis(5-carbamoyl-1H-benzo[d]imidazole-1,2-diyl))bis(4-bromobenzo[b]thiophene-2-carboxylic acid)]: the “DSF huSTING (HAQ) ΔTm” value at human STING (HAQ) [1] was −1.75 °C. Moreover, the “DSF huSTING (WT) ΔTm” value at human STING (WT) [2] was −5.12 °C. Besides, the EC50 in experiment [3] came out at 5480 nM; on WT human STING isoform, 2830 nM. Besides, the Kd on human STING (WT) [4] stood at 1430 nM.

Turning to `COc1ccc(F)c2sc(C(=O)O)c(-c3nc4cc(C(N)=O)ccc4n3CCn3c(-c4c(C(=O)O)sc5c(F)ccc(OC)c45)nc4cc(C(N)=O)ccc43)c12` (single isomer, unassigned) [Example 13.2, 3,3′-(Ethane-1,2-diylbis(5-carbamoyl-1H-benzo[d]imidazole-1,2-diyl))bis(7-fluoro-4-methoxybenzo[b]thiophene-2-carboxylic acid)], the “DSF huSTING (HAQ) ΔTm” value on human STING (HAQ) [1] is 0.89 °C. The “DSF huSTING (WT) ΔTm” value at human STING (WT) [2] was −1.43 °C. For the same compound, the half-maximal effective concentration (EC50) (in experiment [3]; on WT human STING isoform) was > 40000 nM in each case. In addition, the Kd on human STING (WT) [4] came out at 2370 nM.

Turning to `Cc1cccc2sc(C(=O)O)c(-c3nc4cc(C(N)=O)ccc4n3CCn3c(-c4c(C(=O)O)sc5cccc(C)c45)nc4cc(C(N)=O)ccc43)c12` (single isomer, unassigned) [Example 15.1, 3,3′-(Ethane-1,2-diylbis(5-carbamoyl-1H-benzo[d]imidazole-1,2-diyl))bis(4-methylbenzo[b]thiophene-2-carboxylic acid)], the ΔTm at 100 µM was determined as 24.6 °C at human STING (HAQ) [1] and 10.5 °C at human STING (WT) [2]. For the same compound, the EC50 is 1540 nM in experiment [3] and 1010 nM at WT human STING isoform. The Kd on human STING (WT) [4] worked out at 430 nM.

With `NC(=O)c1ccc2c(c1)nc(-c1c(C(=O)O)sc3ccccc13)n2CCn1c(-c2c(C(=O)O)sc3ccccc23)nc2cc(C(N)=O)ccc21` [Example 9, 3,3′-(Ethane-1,2-diylbis(5-carbamoyl-1H-benzo[d]imidazole-1,2-diyl))bis(benzo[b]thiophene-2-carboxylic acid)], the shift in melting temperature (ΔTm) at 100 µM is 6.7 °C on human STING (HAQ) [1] and 2.36 °C on human STING (WT) [2]. In addition, the results for the EC50 (in experiment [3]; on WT human STING isoform) were > 40000 nM and 3650 nM, respectively. Also, the Kd at human STING (HAQ) [5] was determined as 10100 nM.

Turning to `N#Cc1cccc2sc(C(=O)O)c(-c3nc4cc(C(N)=O)ccc4n3CCn3c(-c4c(C(=O)O)sc5cccc(C#N)c45)nc4cc(C(N)=O)ccc43)c12` [Example 17, 3,3′-(Ethane-1,2-diylbis(5-carbamoyl-1H-benzo[d]imidazole-1,2-diyl))bis(4-cyanobenzo[b]thiophene-2-carboxylic acid)], the results for the shift in melting temperature (ΔTm) at 100 µM at human STING (HAQ) [1] and on human STING (WT) [2] were 3.27 °C and -2.58 °C, respectively. Moreover, the values for the EC50 (in experiment [3]; at WT human STING isoform) were 14900 nM and 9400 nM, respectively. For the same compound, the equilibrium dissociation constant (Kd) on human STING (HAQ) [5] was 38000 nM.

Turning to `CCOc1cccc2sc(C(=O)O)c(-c3nc4cc(C(N)=O)ccc4n3CCn3c(-c4c(C(=O)O)sc5cccc(OCC)c45)nc4cc(C(N)=O)ccc43)c12` [Example 24, 3,3′-(Ethane-1,2-diylbis(5-carbamoyl-1H-benzo[d]imidazole-1,2-diyl))bis(4-ethoxybenzo[b]thiophene-2-carboxylic acid)], the results for the thermal shift (ΔTm) at 100 µM on human STING (HAQ) [1] and on human STING (WT) [2] were 3.15 °C and -0.39 °C, respectively. The 50% effective concentration (EC50) (in experiment [3]; at WT human STING isoform) was > 40000 nM each time. In addition, the dissociation constant Kd at human STING (HAQ) [5] was 37000 nM.

The record behind these values is patent US12384801B2, “Benzothiophene, thienopyridine and thienopyrimidine derivatives for the modulation of sting” (CTXT PTY LTD, priority 2019, dated 2025).
